No end group written: not given here.
What was measured:
[1] = system: mouse osteoblast-like cell line MC3T3-E1 Subclone-4; assay: Osteoblast growth-promoting activity (cell counting method); assay type: cell-based; settings: synthetic peptides at 2.5, 5 or 10 μg/mL; 72 hours; relative to PBS (−) group taken as 100; FIGS. 9 to 12
Procedure: A mouse osteoblast-like cell line MC3T3-E1 Subclone-4 (ATCC No. CRL-2593) was cultured in α-MEM medium supplemented with 10% FBS at 5% CO2 and 95% air at 37° C. until confluent. The cells were collected by trypsinization. The collected cells were suspended at 1×10^4 cells/mL in fresh α-MEM medium. One mL of the cell suspension was seeded in each well of a 24-well plate, and precultured at 5% CO2 and 95% air at 37° C. On the next day, the medium was replaced with medium prepared by well mixing 50 μL of a sample or PBS (−) with 950 μL of fresh α-MEM medium supplemented with CaCl2 to a Ca concentration of 500 μg/mL. The cells were further cultured for 72 hours. The growth activity of osteoblasts was measured by the cell counting method. The activity of the sample for promoting the growth of osteoblasts was expressed in terms of the relative value, with the growth rate in the PBS (−) group taken as 100. Osteoblast growth-promoting activity was determined for the synthetic peptides in the same manner as in Example 1. The synthetic peptides were added at 2.5, 5 or 10 μg/mL per well. As a control, PBS (−) was added. The osteoblast growth-promoting activity was expressed in terms of the relative value, with the growth rate in the PBS (−) group taken as 100.

[2] = system: Sprague-Dawley male rats at three weeks old; assay: Bone growth promoting effect in adolescent rats (tibial growth plate, calcein label); assay type: in vivo, rat; settings: FIG. 13
Procedure: One of the synthetic peptides (No. 1) or physiological saline (control) was administered to Sprague-Dawley male rats at three weeks old by oral gavage using a gastric tube once a day for four days. The dose of the synthetic peptide was 1, 10 or 100 mg/kg·day. As a positive control, human growth hormone (hGH) (Norditropin, Standard Commodity Classification No. of Japan: 872412) was subcutaneously administered at 20 μg/kg·day once a day for four days. After the administration on day 4, calcein was subcutaneously administered, and the rats were kept for one day. The rats were euthanized by bloodletting under anesthesia, and the tibiae were harvested. The tissue specimens of the tibial growth plates were prepared, and calcein deposition areas (fluorescent regions) on the tibial growth plates were measured under a fluorescent microscope to determine the longitudinal bone growth.

[3] = system: mouse-derived cell line ATDC5; assay: Hyaluronic acid production-promoting activity (ELISA of culture supernatant); assay type: cell-based; settings: 10 nmol/mL; supernatant after 48 hours of culture; FIG. 15
Procedure: This study was performed using the mouse-derived cell line ATDC5 as used in Example 4. ATDC5 cells in the logarithmic growth phase were seeded at 2×10^4 cells/mL per well in a 24-well plate containing DMEM/F-12 (1:1) medium supplemented with 5% FCS (fetal calf serum), 10 μg/mL transferrin and 3×10^−8 M sodium selenite. The cells were precultured at 5% CO2 and 95% air at 37° C. On the next day, the medium in each well was removed, and medium containing the synthetic peptide (No. 1 or No. 6) at 10 nmol/mL was added. The cells were cultured for […]. As a control, medium without a synthetic peptide was added. After 48 hours of culture, the culture supernatants were collected, and their hyaluronic acid concentrations were measured using QnE Hyaluronic Acid ELISA Assay (Biotech Trading Partners). The concentrations of hyaluronic acid in the culture supernatants of the synthetic peptide addition group were calculated by subtracting the absorbance of the background from the absorbance of the supernatants, and fitting the resulting values to the reference curve prepared using the standard.

[4] = system: Sprague-Dawley male rats fed with a low-calcium diet; assay: Bone density recovery test after low-calcium diet (DXA, pQCT); assay type: in vivo, rat; settings: oral 1, 10 or 100 mg/kg·day for seven days after one week low-calcium diet; vs control
Procedure: Sprague-Dawley male rats at three weeks old were initially fed with a low-calcium diet (containing 0.05% calcium carbonate) for one week, and then fed with a normal diet (containing 1.2% calcium carbonate). The synthetic peptide (No. 1) or physiological saline (control) was administered to the rats by oral gavage using a gastric tube once a day for seven days. The dose of the synthetic peptide was 1, 10 or 100 mg/kg·day. After the oral administration on day 7, the rats were euthanized by bloodletting under anesthesia, and the femurs and tibiae were harvested. The bone volume and bone morphology of the tibiae and femurs were measured by dual energy x-ray absorptiometry (DXA) and peripheral quantitative computed tomography (pQCT).

[5] = system: ovariectomized (OVX) female rats; assay: Postmenopausal osteoporosis model of ovariectomized rats; assay type: in vivo, rat; settings: for bone density compared with sham operation group / volume of the cancellous bone compared with sham operation group: six months
Procedure: Female rats (eight months old, ten rats in each group) underwent ovariectomy (OVX), and synthetic peptide No. 1 was administered to the rats by oral gavage using a gastric tube once a day from the first postoperative day for six months. The dose of the synthetic peptide was 1, 10 or 100 mg/kg·day.

[6] = oral 1, 10 or 100 mg/kg·day for six months
[7] = oral 1, 10 or 100 mg/kg·day for six months, significant vs OVX-control group

VNPESEEE [No. 1] was tested, and the osteoblast growth-promoting activity [1] was “promoted the growth of osteoblasts in a concentration-dependent manner”, the “effect of enhancing the increase in the height of the tibial growth plates, compared with hGH” value ([2]; highest dose (100 mg/kg·day oral) vs hGH 20 μg/kg·day subcutaneous, four days) was “comparable to the effect of the subcutaneous administration of the human growth hormone” and the “increase in the height of the tibial growth plates” value ([2]; oral gavage 1, 10 or 100 mg/kg·day once a day for four days) was “enhanced in a manner consistent with the increase in the dose of the synthetic peptide”. For the same sequence, the “hyaluronic acid production-promoting activity (hyaluronic acid concentration in culture supernatant)” value [3] was “showed hyaluronic acid production-promoting effect”, the “bone density of the tibiae” value [4] was “tended to be higher in the synthetic peptide administration group than in the control group” and the “length of the tibiae” value [4] was “tended to be higher in the synthetic peptide administration group than in the control group”. For the same sequence, the “weight of the tibiae” value [4] was “tended to be higher in the synthetic peptide administration group than in the control group”, the “bone density compared with sham operation group” value ([5]; high-dose 100 mg/kg·day oral) was “equal or higher bone density as compared with the sham operation group” and the “volume of the cancellous bone compared with sham operation group” value ([5]; high-dose 100 mg/kg·day oral) was “equal or higher volume of the cancellous bone as compared with the sham operation group”. For the same sequence, the “bone density compared with sham operation group” value ([5]; medium-dose 10 mg/kg·day oral) was “equal or higher bone density as compared with the sham operation group”, the “volume of the cancellous bone compared with sham operation group” value ([5]; medium-dose 10 mg/kg·day oral) was “equal or higher volume of the cancellous bone as compared with the sham operation group” and the “OVX-induced increase in the trabecular separation” value [5, 6] was “tended to be inhibited”. For the same sequence, the “OVX-induced reduction in the trabecular numbers” value [5, 6] was “tended to be inhibited”, the “OVX-induced reduction in the trabecular width” value [5, 6] was “tended to be inhibited” and the “bone density of the distal femoral metaphysis” value [5, 7] was “increase in the bone density of the distal femoral metaphysis in a manner consistent with the increase in the dose of the synthetic peptide”. The “cancellous bone volume in the proximal tibial metaphysis” value [5, 7] was “increased in the OVX-synthetic peptide administration group in a manner consistent with the increase in the dose”.
